Measurements reported in publication PMC6403188, “Species-Specific Structural Requirements of Alpha-Branched Trehalose Diester Mincle Agonists” (Frontiers in Immunology, 2019).

What was measured:
THP-1 cells = assay: TNFα production from THP-1 cells (ELISA); type: cell-based, human; conditions: plate-coated compound, 24 h
Method: Supernatants were harvested from treated cells following 18–24 h of incubation. Supernatants were analyzed using a DuoSet TNFα ELISA (R&D Systems, Minneapolis, MN) or Luminex multiplex panel for analytes TNFα, IL-1β, IL-6, IFNγ, IL-12p70, and IL-23 (R&D Systems) per the manufacturer's instructions. Multiplex analysis was performed using a Luminex 200 instrument (Luminex Corporation) and analyzed with StarStation2.3 software. ELISAs were read on a plate reader at 450 nm and cytokine concentration was calculated by fitting the standard curve OD values to a 4-parameter logistical model using curve fitting software (XLfit, IDBS, Alameda, CA).
Next, investigation into activity of the alpha-branched TDE compounds was extended to include both human and murine monocytic cell lines, THP-1 and RAW264.7, respectively. These cell lines have previously been reported as responsive to the Mincle receptor agonists TDM and TDB ([30], [31]).
Figure 3 TNFα production from human THP-1 cells in response to stimulation with synthetic αTDE compounds. The indicated compounds were dissolved in 50% isopropanol/isooctane, serially diluted in vehicle and then dried to the bottom of a tissue culture plate. THP-1 cells were applied to the compound-coated plates and incubated at 37°C; supernatant was harvested 24 h later and analyzed for TNFα via ELISA (A-E). Results from the 200 μg/ml concentration vs. each compounds acyl chain length are shown in (F). Data points are average of at least two independent experiments ± SD.

BALB/c mice = assay: Splenocyte restimulation with M72 and intracellular cytokine staining of CD4/CD8 T cells after vaccination; type: in vivo, mouse; conditions: 0.125 μg antigen plus 2, 10, or 50 nmol liposomal adjuvant, i.m. two times, spleens 5 days post-secondary
Method: Animal studies were carried out in an OLAW and AAALAC accredited vivarium in accordance with University of Montana's IACUC guidelines for the care and use of laboratory animals. Groups of 10–14 BALB/c mice were vaccinated intramuscularly with 0.125 μg M72 antigen and indicated concentrations of various CLR adjuvant candidates (liposomal formulations) in 50 μl total volume per injection. After 14 days, blood and serum samples were collected and a secondary vaccination was administered. At day 19 (5 days post-secondary vaccination), 3–6 mice per group were euthanized and spleens were harvested the assessment of cell-mediated immunity. At day 28 (14 days post booster vaccination) the remaining 7 mice in each group were euthanized and blood was collected for the measurement of M72 specific humoral immunity.
Spleens were harvested from vaccinated mice 5 days after secondary injections and splenocytes were harvested by disruption of the spleens through a 100 μm filter. Red blood cells were lysed by incubation with red blood cell lysis buffer (Sigma) for 5 min followed by washing in 1x PBS. Cells were plated in a 96 well plate at 5 × 10^6 cells/well in 200 μL complete RPMI1640 media. Cells were incubated with 1 μg/mL M72 antigen for […] at 37°C. After 7 h, GolgiPlug (Brefeldin A, BD Biosciences) was added to each well and incubated at 37°C for a further 12 h. Following incubation, cells were stained with the cell surface antibodies against CD3e PerCP-Cy5.5 (Tonbo Biosciences, 145-2C11), CD4a APC-Cy7 (Tonbo Biosciences, RM4-5) and CD8a PE-Cy7 (Tonbo Biosciences, 53–6.7) and viability stain (Ghost 510, Tonbo Biosciences). Cells were treated with cytofix/cytoperm (BD) and stained with anti-IFNγ PE-CF594 (BD, XMG1.2), anti-IL2 FITC (Biolegend, JES6-5H4), anti-IL-5 PE (BD, TRFK5), anti-IL17A BV421 (Biolegend, TC11-18H10.1), and anti-TNFα APC (Invitrogen, MP6-XT22). Data was collected using an LSRII flow cytometer (BD) and analyzed using FlowJo 10.0 software (TreeStar). Splenocytes were gated on live, single cells, then CD3+ to identify all T cells, then gated as CD4+CD8- to identify CD4 T cells or CD4-CD8+ to identify CD8 T cells. Gates for intracellular cytokine positive CD4 or CD8 T cells are set based on re-stimulation of naïve splenocytes. Gating strategies for the detection of antigen specific CD4+ and CD8+ T cells are outlined in Supplemental Figure 3.
Figure 7 Induction of IL-17 producing CD4+ and CD8+ T cells from an αTDE adjuvanted M72 vaccine. BALB/c mice, 10 per group, were immunized two times i.m. with 0.125 μg antigen plus 2, 10, or 50 nmol of the indicated adjuvant. Spleens were harvested from a subset of 3 mice per group at 5 days post-secondary vaccination. Splenocytes were restimulated with 1 μg/mL whole antigen and transport inhibitors followed by surface staining for CD3, CD4, and CD8 and then intracellular cytokine staining. Data represent percentage of live, CD3^+/CD4^+, left, or CD3^+/CD8^+, right, cells that are also positive for IL-17A upon stimulation.
Figure 8 B16 liposomes biases a Th17/Th2 adaptive immune response. BALB/c mice, 14 per group, were immunized twice, 14 days apart, i.m with 0.1, 1, or 10 μg of M72 antigen plus either blank DDA:DSPC liposome or B16 loaded (10 nmol final dose) liposome. (A,B) M72-specific serum antibody titers at 14 days post-secondary vaccination. (C–F) Spleens were harvested from mice at 5 days post-secondary vaccination and restimulated with 1 μg/mL whole antigen and transport inhibitors followed by surface staining for CD3, CD4, and CD8 and then intracellular cytokine staining. (C) Percent of live, CD3^+/CD4^+/IL5+ cells, (D) Percent of live, CD3^+/CD8^+/IFNγ+ cells, (E) Percent of live, CD3^+/CD4^+/IL17+ cells, and (F) Percent of live, CD3^+/CD8^+/IL17+ cells. ^*p < 0.05, ^**p < 0.01, ^****p < 0.001.
Supplemental Figure 10. Production of IFNɣ, IL-2, IL-5 or TNFα by CD4 or CD8 T cells in response to various CLR compounds. […]

CCCCCCCCCCCCCCCCCCCCCC(=O)OC[C@H]1O[C@H](O[C@H]2O[C@H](COC(=O)CCCCCCCCCCCCCCCCCCCCC)[C@@H](O)[C@H](O)[C@H]2O)[C@H](O)[C@@H](O)[C@@H]1O [TDB, trehalose dibehenate, reference compound]
TNFα induction from THP-1 cells (in words) (THP-1 cells): activity at the highest concentrations tested
IL-17+ CD4+ and CD8+ T cells (Th17 response) after M72 re-stimulation (BALB/c mice): able to boost Th17
